Like-named read-outs stand apart in the source and are kept apart here.
Columns and labels:
[1] = test system: hCA IV; experiment: Stopped-flow CO2 hydrase inhibition assay, hCA IV; type: biochemical, human; conditions: ratio of KIs
Protocol: (§1) An Applied Photophysics stopped-flow instrument (Applied Photophysics Ltd, Leatherhead, UK) was used for assaying the CA-catalyzed CO2 hydration activity. Phenol red (at a concentration of 0.2 mM) was used as an indicator, working at the absorbance maximum of 557 nm, with 20 mM Hepes (pH 7.5) as a buffer and 20 mM Na2SO4 for maintaining constant the ionic strength, following the initial rates of the CA-catalyzed CO2 hydration reaction for a period of 10−100 s. The CO2 concentrations ranged from 1.7 to 17 mM for the determination of the kinetic parameters and inhibition constants. For each inhibitor, at least six traces of the initial 5−10% of the reaction were used for determining the initial velocity. The uncatalyzed rates were determined in the same manner and subtracted from the total observed rates. Stock solutions of inhibitor (0.1 mM) were prepared in distilled−deionized water and dilutions up to 0.01 nM were made thereafter with the assay buffer. Inhibitor and enzyme solutions were preincubated together for 15 min at room temperature before the assay to allow for the formation of the E−I complex. The inhibition constants were obtained by nonlinear least-squares methods using Prism 7 (GraphPad Software, La Jolla, CA, USA) and the Cheng−Prusoff equation and represent the mean of at least three different determinations. The enzyme concentrations were in the range of 3–11 nM. All hCA isoforms were recombinant ones obtained in-house.

[2] = test system: hCA IX; experiment: Stopped-flow CO2 hydrase inhibition assay, hCA IX; type: biochemical, human; conditions: ratio of KIs
Protocol: as §1

[3] = test system: hCA XII; experiment: Stopped-flow CO2 hydrase inhibition assay, hCA XII; type: biochemical, human; conditions: ratio of KIs
Protocol: as §1

[4] = test system: MDA-MB-231; experiment: MTT antiproliferative assay, MDA-MB-231; type: cell-based; conditions: Homo sapiens, normoxic conditions, 72 h
Protocol: (§2) These cell lines were cultured as monolayers in Dulbecco’s Modified Eagle’s Medium (DMEM) supplemented with 10% FBS, 2 mM l-glutamine, 100 U/mL penicillin, and 100 µg/mL streptomycin sulfate. […] The cells were sub-cultured using trypsin/EDTA solution, counted with a hemocytometer, and plated on 96-well plates (5000 cells/well), allowing them to form a semi-confluent monolayer overnight. […] DMSO (100 µL/well) was then added to dissolve the formazan crystals with shaking for 10 min, after which the absorb absorbance was read at 590 nm against no-cell blanks using a FLuo Star Optima microplate reader (BMG technologies, Ortenberg, Germany). Cell proliferation was calculated by comparing the OD values of the DMSO control wells with those of the samples, represented as % proliferation relative to the control.

[5] = test system: HCT-116; experiment: MTT antiproliferative assay, HCT-116 (normoxia and CoCl2-induced hypoxia); type: cell-based, human; conditions: HCT-116; for IC50: Homo sapiens, MTT, 72 h
Protocol: as §2

[6] = test system: A549; experiment: MTT antiproliferative assay, A549; type: cell-based; conditions: Homo sapiens, normoxic conditions, 72 h
Protocol: The human triple-negative breast cancer cell line (MDA-MB-231), colon cancer cell line (HCT-116), and lung cancer cell line (A549) used in this study were obtained from the American Type Culture Collection (ATCC). These cell lines were cultured as monolayers in Dulbecco’s Modified Eagle’s Medium (DMEM) supplemented with 10% FBS, 2 mM l-glutamine, 100 U/mL penicillin, and 100 µg/mL streptomycin sulfate. […] The cells were sub-cultured using trypsin/EDTA solution, counted with a hemocytometer, and plated on 96-well plates (5000 cells/well), allowing them to form a semi-confluent monolayer overnight. […]. DMSO (100 µL/well) was then added to dissolve the formazan crystals with shaking for 10 min, after which the absorb absorbance was read at 590 nm against no-cell blanks using a FLuo Star Optima microplate reader (BMG technologies, Ortenberg, Germany). Cell proliferation was calculated by comparing the OD values of the DMSO control wells with those of the samples, represented as % proliferation relative to the control.

[7] = target: hCA I; conditions: stopped-flow CO2 hydrase assay, mean of three assays; cited from earlier work
[8] = target: hCA II; conditions: stopped-flow CO2 hydrase assay, mean of three assays; cited from earlier work
[9] = target: hCA IX; conditions: stopped-flow CO2 hydrase assay, mean of three assays; cited from earlier work
[10] = target: hCA XII; conditions: stopped-flow CO2 hydrase assay, mean of three assays; cited from earlier work
[11] = target: hCA IV; conditions: stopped-flow CO2 hydrase assay, mean of three assays; cited from earlier work
[12] = compound 150 µM, rat liver homogenate, 37 °C; cited from earlier work
[13] = Spectrophotometric methylene blue H2S release in phosphate buffer with or without thiols; conditions: 37 °C, with or without L-cysteine or glutathione
[14] = chemically induced hypoxia with CoCl2·6H2O, read-out: IC50 HCT-116 (Hypoxia)
[15] = normoxic conditions, read-out: IC50 HCT-116 (Normoxia)

hCA II/hCA IV selectivity ratio [1]	hCA II/hCA IX selectivity ratio [2]	hCA II/hCA XII selectivity ratio [3]	IC50 [4] [µM]	IC50 Normoxia / IC50 Hypoxia [5]	IC50 [5, 14] [µM]	IC50 [5, 15] [µM]	IC50 [6] [µM]	Structure (SMILES)	Ki [7] [µM]	Ki [8] [µM]	Ki [9] [µM]	Ki [10] [µM]	Ki [11] [µM]	H2S release half-life t/2 [12] [min]	H2S release in phosphate buffer [13]	Time of peak H2S release [12] [min]
104	192	284	6.31 ± 0.22	0.6	11.4 ± 0.22	6.62 ± 0.21	23.7 ± 1.61	NS(=O)(=O)c1ccc(CCN(Cc2ccc(Br)cc2)C(=O)c2ccc(-c3cssc3=S)cc2)cc1 [Compound 22]	7.7	3.66	0.0191	0.0129				
29.3	209	1148	3.25 ± 0.09	0.8	12.7 ± 0.25	10.1 ± 0.66	60.9 ± 2.17	CSc1ccc(CN(CCc2ccc(S(N)(=O)=O)cc2)C(=O)c2ccc(-c3cssc3=S)cc2)cc1 [Compound 29]	7.21	9.65	0.0462	0.0084	0.404	4.6		
								O=C(O)c1ccc(-c2cssc2=S)cc1 [Compound 3]						3.1	minimal H2S release	20
